Measured values as given in patent publication US20250381180A1, “METHODS OF TREATING OR PREVENTING OVERACTIVE BLADDER SYNDROME” (Purdue Pharma L.P., priority 2022, published 2025).
Entries after “also recorded” stand apart in the source; their conditions may differ.

Tests used:
[1] = Urine concentrations in humans after a single oral dose; format: in vivo, human; conditions: see Example 2
conscious BOO rats [2] = test: Cystometric parameters in conscious bladder outlet obstruction (BOO) rats; format: in vivo, rat; conditions: i.g.; for BC, effect versus basal: Cpd (IA) 30 mg/kg, mirabegron 10 mg/kg
Protocol: Test substance effects were compared to those of the reference substance, mirabegron, marketed for overactive bladder.
• At W-6, a partial ligature of the urethra was performed. • At W-6, during 3 consecutive days, rats were treated daily with gentamycin and Ketofen® The bladder was emptied manually once a day. • From W-6 to W-1 animals were monitored and weighed once per week. • At W0 (D-2), catheters were implanted under isoflurane anesthesia. • At D0, cystometry was performed.
Appropriate amount of Cpd (IA) was weighed and dissolved in vehicle to obtain the dosing solution with the target concentration of 3 mg/mL (as free base). […]
[…] Mirabegron (from Kemprotec) was prepared fresh on the day of administration at a final concentration of 2 mg/mL (free base form). Appropriate mass of mirabegron was weighed and dissolved in vehicle (0.5% MC) at room temperature.

conscious SCI rats [3] = test: Cystometric parameters in conscious spinal cord injury (SCI) rats; format: in vivo, rat; conditions: i.g., Cpd (IA) 30 mg/kg, mirabegron 10 mg/kg
Protocol: Test substance effects were compared to those of the reference substance, the β3-adrenoceptor agonist mirabegron, marketed for overactive bladder.
• At W-5, spinal cord injury was performed at T8 level as described below. • Over W-5, rats were treated daily with gentamicin. • Over W-5 and W-4, bladder was emptied manually once a day. • From W-5 to W0, animals were weighed once per week. • At D-2 (W0), implantation of catheters was performed under isoflurane anaesthesia as described below. • At D0 (W0), cystometry was performed
Rats were anesthetized with isoflurane (3%). Body temperature was constantly maintained at 37° C. throughout the surgery by placing animals on a thermo-regulated hot plate. A laminectomy was performed and the spinal cord was sectioned with microscissors at T8 level. Care was taken to assure that the section was complete by verifying that a slight retraction of the two segments occurred. Then the muscle was sutured and the skin fixed with staples. The scar was cleaned by Vetedine. For the Sham group, the same surgery was performed without section of the spinal cord.
The urinary bladder was squeezed once a day for 14 days with a gentle massage of the abdomen until restoration of the micturition reflex. In addition, they were administered intramuscularly daily for one week with gentamicin (2 mg/mL, 0.2 ml/rat). Animals were euthanized if they reached humane endpoints: weight loss of greater than 20% of their body weight and/or abnormal behavioral changes indicating presence of pain and distress (prostration, self-mutilation, aggressiveness).
Rats were anesthetized with isoflurane (3%). Body temperature was constantly maintained at 37° C. throughout the surgery by placing animals on a thermo-regulated hot plate. A polyethylene catheter (0.58 and 0.96 mm of inner and outer diameters, respectively) was implanted in the bladder through the dome for intravesical pressure recording. Another catheter (0.58 and 0.96 mm of inner and outer diameters, respectively) was implanted in the stomach for intra-gastric administration. Catheters were exteriorized at the scapular level. After surgery, each rat was housed individually up to the end of the protocol with free access to food and water.
Animals were held under partial restraint in a restraining device. Saline was infused into the bladder at a constant flow rate of 2 or 6 mL/h for sham or SCI rats, respectively. After at least 45 min (3 complete micturition cycles corresponding to basal values), test substances were administered by intra-gastric route. Then, intravesical pressure was recorded for 90 min.
The following cystometric parameters were analyzed (see FIG. 10): • Amplitude of micturition (AM, mmHg). • Threshold pressure (ThP, mmHg). • Intercontraction interval (ICI, sec): time between basal pressure and ThP. ICI was not presented due to different infusion rate in sham and SCI rats. ICI was only analyzed to calculate the bladder capacity. • Bladder capacity (BC, mL) BC=ICI×infusion rate. • Amplitude of non voiding contractions (NVC, mmHg) • Frequency of NVC (number per min).
For each cystometric parameter and for each time period, the comparisons were performed as described below: • Basal values of each cystometric parameter of Sham/Vehicle and SCI/Vehicle groups were compared using unpaired student t test • Basal values of each cystometric parameter of all SCI groups were compared using one-way ANOVA or Kruskal-Wallis test • The 3 interval periods of 30 min post treatment of each cystometric parameter within the same group were compared to corresponding basal values using one-way ANOVA with repeated measures or Friedman test followed by Dunnett's or Dunn's post-test, respectively. • The 3 interval periods of 30 min post treatment of each cystometric parameter were compared between all SCI groups using one-way ANOVA or Kruskal Wallis test followed by Holm-Sidak's or Dunn's post-test versus Vehicle, respectively.

conscious BOO rats [4] = conditions: Gillespy et al., 2012; cited from earlier work
[5] = test system: rhythmic bladder contractions (RBC) in anesthetized female rats; test: Isovolumetric model: rhythmic bladder contractions (RBC), cystometry; format: in vivo, rat; conditions: for RBC amplitude, basal / RBC frequency, basal: basal period −30/0 min before i.v. administration, group mean
Source text: In rats, under isovolumetric condition, bladder distension induced rhythmic bladder contractions (RBC) (Aizawa et al, (2015) Effects of L-arginine, mirabegron, and oxybutynin on the primary bladder afferent nerve activities synchronized with reflexic, rhythmic bladder contractions in the rat. Neurourology & Urodynamics 34:368-374). This isovolumetric model allows the evaluation of compound on RBC. It is a closed system where the bladder is slowly infused through a urethral catheter with saline until the occurrence of spontaneous rhythmic bladder contractions.
Test substance effects were compared to that of the reference substance, tolterodine, an […], marketed for overactive bladder in humans.
Protocol: • Animals were anesthetized with urethane (i.p.). • Ureters were ligated and sectioned close to the kidneys. • Intravesical catheter was inserted into the bladder though the urinary meatus. • Urinary meatus was closed. • A catheter was inserted into the jugular vein for compound administration. • Bladder was filled with saline until the occurrence of RBC. • After 30 min basal period, compounds were administered as described below. • The effect of the test substances was followed by 1-hour post administration.
Rats were anesthetized with an intraperitoneal administration of urethane (1 g/kg). The ureters were ligated and sectioned close to the kidneys. A catheter (0.30 and 0.70 mm of inner and outer diameters, respectively) was inserted through the urinary meatus into the bladder before urethral ligature. Another catheter (0.58 and 0.96 mm of inner and outer diameters, respectively) was inserted into the jugular vein for intravenous (i.v.) administration.
For all group, animals were treated by i.v. route (1 mL/kg) (slow bolus) after the basal period.
The vesical catheter was connected via a T-tube to a strain gauge (to measure intra-vesical pressure) and to a syringe. Isovolumetric bladder contractions were induced by stepwise injections of physiological saline at room temperature (100 μL every 5 min) until stable RBC occurred. Vesical pressure was continuously recorded. After a 30 min control period (basal values), substances or vehicle were i.v. administered. The effects of substances were followed during 60 min after administration. At the end of the experiments, animals were sacrificed by cervical dislocation.
The following parameters were analyzed: • Amplitude of RBC (mmHg) • Frequency of RBC (number/30 min) • Time of inhibition (sec)
The % variation from the basal values were calculated for RBC frequency and amplitude.
Statistical analysis and graphs were performed using GraphPad Prism® (GraphPad Software Inc., La Jolla, CA, USA). A p value <0.05 was accepted for statistical significance.

conscious SCI rats [6] = conditions: Beauval et al., 2015; cited from earlier work
[7] = 0/60 min after i.v., Cpd (IA) 3 mg/kg (n=8), tolterodine 1 mg/kg, mean
[8] = 0/60 min after i.v., Cpd (IA) 3 mg/kg, tolterodine 1 mg/kg, mean
[9] = 0/60 min after i.v., Cpd (IA) 3 mg/kg, tolterodine 1 mg/kg, mean, listed as Tolterodine
[10] = i.v., Cpd (IA) 3 mg/kg, tolterodine 1 mg/kg, vs basal
[11] = i.v., Cpd (IA) 3 mg/kg, tolterodine 1 mg/kg, vs vehicle

SMILES: O=C(O)c1nc2ccccc2n(C2CC3CCCC(C2)N3C2CC3CCCC(C3)C2)c1=O (stereo not shown) [compound of formula (I)]
- route of excretion [1]: primarily excreted from the urine largely unchanged

SMILES: Nc1nc(CC(=O)Nc2ccc(CCNC[C@H](O)c3ccccc3)cc2)cs1 [mirabegron, reference compound]
- AM (mmHg or % variation), effect versus vehicle (conscious BOO rats [2]; 0-90 min entire period): not significantly modified
- AM, effect versus basal (conscious BOO rats [2]; 0-90 min entire period): did not significantly modify
- BC expressed in % variation from basal, effect versus vehicle (conscious BOO rats [2]; 0-90 min entire period): not significantly modified
- BC expressed in mL, effect versus vehicle (conscious BOO rats [2]; 0-90 min entire period): no significant difference
- NVC amplitude expressed in % variation from basal, effect versus vehicle (conscious BOO rats [2]; 0-90 min entire period): significantly reduced
- NVC amplitude expressed in mmHg, effect versus vehicle (conscious BOO rats [2]; 0-90 min entire period): not significantly modified
- NVC amplitude, effect versus basal (conscious BOO rats [2]; 0-90 min entire period): did not modify
- NVC frequency (NVC/min or % variation), effect versus vehicle (conscious BOO rats [2]; 0-90 min entire period): not significantly modified
- NVC frequency, effect versus basal (conscious BOO rats [2]; 0-90 min entire period): significantly decreased
- ThP expressed in % variation from basal, effect versus vehicle (conscious BOO rats [2]; 0-90 min entire period): no significant effect
- ThP expressed in mmHg, effect versus vehicle (conscious BOO rats [2]; 0-90 min entire period): not significantly modified
- ThP, effect versus basal (conscious BOO rats [2]; 0-90 min entire period): did not modify
- AM (mmHg or % variation), effect versus vehicle (conscious BOO rats [2]; 60-90 min interval period): no effect
- AM, effect versus basal (conscious BOO rats [2]; 60-90 min interval period): did not significantly modify
- BC expressed in % variation from basal, effect versus vehicle (conscious BOO rats [2]; 60-90 min interval period): no significant difference
- BC expressed in mL, effect versus vehicle (conscious BOO rats [2]; 60-90 min interval period): no significant difference
- NVC amplitude expressed in % variation from basal, effect versus vehicle (conscious BOO rats [2]; 60-90 min interval period): significantly decreased
- NVC amplitude expressed in mmHg, effect versus vehicle (conscious BOO rats [2]; 60-90 min interval period): not significantly modified
- NVC amplitude, effect versus basal (conscious BOO rats [2]; 60-90 min interval period): significantly reduced
- NVC frequency (NVC/min or % variation), effect versus vehicle (conscious BOO rats [2]; 60-90 min interval period): unaffected
- NVC frequency, effect versus basal (conscious BOO rats [2]; 60-90 min interval period): significantly decreased
- ThP expressed in % variation from basal, effect versus vehicle (conscious BOO rats [2]; 60-90 min interval period): significantly decreased
- ThP expressed in mmHg, effect versus vehicle (conscious BOO rats [2]; 60-90 min interval period): not significantly modified
- ThP, effect versus basal (conscious BOO rats [2]; 60-90 min interval period): without effect
- BC, effect versus basal (conscious BOO rats [2]; 0-90 min entire period): did not significantly modify
- BC, effect versus basal (conscious BOO rats [2]; 60-90 min interval period): significantly increased
- AM (amplitude of micturition), effect versus basal (conscious SCI rats [3]): did not significantly modify
- AM (mmHg and % variation), effect versus vehicle (conscious SCI rats [3]): not significantly modified
- BC expressed in % variation from basal, effect versus vehicle (conscious SCI rats [3]): not significantly modified
- BC expressed in mL, effect versus vehicle (conscious SCI rats [3]): no significant difference
- NVC amplitude (mmHg or % variation), effect versus vehicle (conscious SCI rats [3]): not significantly modified
- NVC amplitude, effect versus basal (conscious SCI rats [3]): did not significantly modified
- NVC frequency (NVC/min and % variation), effect versus vehicle (conscious SCI rats [3]): not significantly modified
- NVC frequency, effect versus basal (conscious SCI rats [3]): significantly decreased NVC frequency for the 30-60 and 60-90 min interval periods; also recorded: slightly but significantly decreased
- ThP (mmHg and % variation), effect versus vehicle (conscious SCI rats [3]): not significantly modified
- ThP (threshold pressure), effect versus basal (conscious SCI rats [3]): significantly decreased ThP for the 60-90 min post-administration interval period
- BC (bladder capacity), effect versus basal (conscious SCI rats [3]; 30-min interval periods to 90 min): did not significantly modify
- frequency of NVC (conscious BOO rats [4]): reduces

SMILES: O=C(O)c1nc2ccccc2n([C@H]2C[C@H]3CCC[C@@H](C2)N3C2CC3CCCC(C3)C2)c1=O (single isomer, unassigned) [compound of formula (I′)]
- route of excretion [1]: primarily excreted from the urine largely unchanged

SMILES: Cc1ccc(O)c([C@H](CCN(C(C)C)C(C)C)c2ccccc2)c1 [tolterodine]
- RBC amplitude, % variation from basal [5, 7]: −30.83±5.24%
- RBC amplitude, treated period [5, 7]: 18.56 mmHg
- RBC amplitude, % variation from basal ([5]; 0/60 min after i.v., Cpd (IA) 3 mg/kg (n=8), tolterodine 1 mg/kg, mean, listed as Tolterodine): −30.83%
- RBC frequency, % variation from basal [5, 8]: −33.93±10.93%
- RBC frequency, treated period [5, 8]: 15.30±2.72 nb of RBC/30 min
- RBC frequency, % variation from basal [5, 9]: −33.93%
- RBC frequency, treated period [5, 9]: 15.30 nb of RBC/30 min
- Inhibition time ([5]; after i.v., Cpd (IA) 3 mg/kg, tolterodine 1 mg/kg, mean): 87.04 s
- RBC amplitude, basal [5]: 27.22±2.03 mmHg
- RBC frequency, basal [5]: 23.00±0.87 nb of RBC/30 min
- RBC amplitude, basal ([5]; listed as Tolterodine): 27.22 mmHg
- RBC frequency, basal ([5]; listed as Tolterodine): 23.00 nb of RBC/30 min
- bladder afferent activity ([5]; conclusion of Example 1): no effect
- bladder efferent activity ([5]; conclusion of Example 1): effectively inhibited
- RBC amplitude, effect versus basal [5, 10]: significantly reduced
- RBC frequency, effect versus basal [5, 10]: significantly decreased
- RBC amplitude (% variation), effect versus vehicle [5, 11]: significantly reduced
- RBC frequency (% variation), effect versus vehicle [5, 11]: did not significantly modify
- time of inhibition, effect versus vehicle [5, 11]: no significant difference

SMILES: C[C@H](Cc1ccc2c(c1)OC(C(=O)[O-])(C(=O)[O-])O2)NC[C@H](O)c1cccc(Cl)c1.[Na+].[Na+] [CL-316,243]
- bladder capacity (conscious SCI rats [6]): significantly increase
- frequency of NVC (conscious SCI rats [6]): reduce
